# Data: US8821862B2, “Soluble β-N-acetylglucosaminidase based antibiofilm compositions and uses thereof” (Kane Biotech Inc., priority 2002, dated 2014)
# Key:
# [1] = test system: biofilm embedded S. epidermidis; assay: 12-well microplate biofilm assay with CFU counting; assay type: cell-based, Staphylococcus epidermidis
# Experimental: In vitro microplate assays were performed to determine the effect of DispersinB and PyrM combination on the growth of biofilm-embedded S. epidermidis. Overnight growth of S. epidermidis in tryptic soy broth (TSB) was used as inoculum. Biofilm was developed in 12-well microplate in the absence and presence of each test compound (1 μg/ml DispersinB or 8 μg/ml PyrM) separately and together (DispersinB+PyrM). The plates were incubated at 37° C. for 24 h. Medium containing planktonic cells in each well was removed gently and rinsed with sterile water. A known volume of water was added to each well and sonicated for seconds. The contents of each well was transferred into a sterile tube, vortexed for a minute, followed by 10-fold serial dilution, and plated on agar plates using a spreader. After incubating the plates at 37° C. for 24 h, colony-forming units (CFU) were counted.
# [2] = test system: biofilm-embedded S. epidermidis; assay: In vitro biofilm killing assay after DispersinB pre-treatment; assay type: cell-based, Staphylococcus epidermidis; settings: 37° C.
# Experimental: An in vitro biofilm assay was performed to determine the effect of DispersinB™ pre-treatment on the susceptibility of S. epidermidis to SDS. S. epidermidis biofilm grown in tubes were pretreated with PBS or DispersinB™ (20 μg/ml) for 30 min, and then treated with SDS (0.2 mg/ml) for 5 min at 37° C. […] However, SDS caused a 1.5 log unit decrease in the number of CFUs in tubes pretreated with […] biofilm embedded cells more susceptible to SDS.
# An in vitro biofilm assay was performed to determine the effect of DispersinB™ pre-treatment on the susceptibility of biofilm-embedded S. epidermidis to CHX. S. epidermidis biofilm grown in tubes were pretreated with PBS or DispersinB™ (20 μg/ml) for 30 min, and then treated with CHX (0.2 μg/ml) for 5 min at 37° C. […] However, CHX caused a 1.6 log decrease of CFU in tubes pretreated with DispersinB™. DispersinB™ pretreatment made biofilm-embedded cells more susceptible to CHX.
# An in vitro biofilm assay was performed to determine the effect of DispersinB™ pre-treatment on the susceptibility of S. epidermidis to BKC. S. epidermidis biofilm grown in tubes were pretreated with PBS or DispersinB™ (20 μg/ml) for 30 min, and then treated with BKC (0.4 μg/ml) for 60 min at 37° C. […] However, BKC caused a 2.2 log decrease in CFU in tubes pretreated with DispersinB™. DispersinB™ pre-treatment made biofilm-embedded cells more susceptible to BKC.
# An in vitro biofilm assay was performed to determine the effect of DispersinB™ pre-treatment on susceptibility of S. epidermidis to silver nanopowder (SNP). S. epidermidis biofilm grown in tubes were pretreated with PBS or DispersinB™ (20 μg/ml) for 30 min, and then treated with SNP (0.03125 μg/ml) for 60 min at 37° C. […] However, SNP caused a 1.5 log decrease in CFU in tubes pretreated with DispersinB™. DispersinB™ pre-treatment made biofilm embedded cells more susceptible to SNP treatment.
# [3] = test system: biofilm embedded S. aureus; assay: 12-well microplate biofilm assay with CFU counting; assay type: cell-based, Staphylococcus aureus; settings: EGCG 100 ng/ml alone versus DispersinB alone
# Experimental: An in vitro microplate assays were performed to determine the effects of a DispersinB™ and EGCG combination on the growth of biofilm embedded S. epidermidis and S. aureus. Overnight cultures of each bacterial strain grown in Tryptic Soy Broth (TSB) were used as inoculum. Biofilm was developed in TSB on a 12-well microplate in the absence and presence of each test compound (50 ng DispersinB™ or 100 ng/ml ECCG) separately and together (DispersinB™+EGCG). The plates were incubated at 37° C. for 24 hours. Medium containing planktonic cells in each well was removed gently and rinsed with sterile water. A known volume of water was added to each well and sonicated for 30 seconds. The contents of each well was transferred into a sterile tube, vortexed for a minute, followed by 10-fold serial dilution, and plated on agar plates using a spreader. After incubating the plates at 37° C. for 24 hours, colony forming units (CFU) were counted.
# [4] = test system: biofilm-embedded S. epidermidis; assay: In vitro biofilm-dispersal assay in microcentrifuge tubes (sensitivity of biofilm-embedded cells, CFU plating); assay type: cell-based, Staphylococcus epidermidis; settings: 3 h, 37° C.
# [5] = test system: E. coli csrA luxCDABE kan^r biofilm; assay: Bioluminescent E. coli biofilm on filter disc, luminescence; assay type: cell-based; settings: Table 4, repeated experiment
# From the text: E. coli TRMG1655 [csrA::kan^r] strain was transformed with transposon, mini-TN5 luxCDABE::kan^r for luciferase expression (Kadurugamuwa et al., 2005, Infect. Immun. 73: 3878-3887), and the operon integrated into the chromosome. Integration was confirmed by amplification of the genomic DNA upstream of the transposon by inverse PCR using Ssp1-digested genomic DNA. Primers UTCF1 (5′-[…]-3′; SEQ ID NO:13) and UTCR (5′-[…]-3′; SEQ ID NO:14) were used to amplify the upstream region using Pfu DNA polymerase (Sigma-Oligosynthesis, St. Louis, Mo.). The lux operon is derived from Photorhabdus luminescence and was obtained from Xenogen Inc. (Alameda, Calif.). These bioluminescent bacteria allow real-time monitoring by noninvasive imaging of biofilms, either in vitro or in vivo.
# A cell suspension of 10^6 E. coli csrA luxCDABE kan^r was used to inoculate a filter disc (Millipore Corporation, Billerica, Mass.). The E. coli biofilm was maintained in minimal media (M9) supplemented with 50 μg/ml kanamycin and 100 μg/ml ampicillin. The media were changed every day by transferring the disc to new plate. After 3 days, chemoluminescence activity of the established biofilm was measured using a Typhoon™ imaging scanner (General Electric Healthcare Life Sciences) and ImageQuant TL software (Amersham Biosciences, Sunnyvale, Calif.). The measure luminescence directly correlates with the metabolic activity of the biofilm.
# Luminescence was measured at day 0 and was used as the control. Following the measurement of luminescence at day 0, each disc was treated with one of the following—media alone (control) and media containing:
# Luminescence was measured every 24 hours followed by replacing the media. Thus, every 24 h following the measurement of the luminescence, 10 μl each of the different solutions was applied to the plate and the biofilm disc was placed on top of the drop everyday. The quantitative analysis of the biofilm luminescence from each day was used to compare the biofilm activity after treatment with the different treatments.
# The experiments were repeated using the same E. coli strain csrA luxCDABE kan^r and protocols. Biofilm discs were pulsed with media alone (control) and media containing: […]
# [6] = test system: A. actinomycetemcomitans strain HW1018 (PGA mutant) biofilms; assay: Biofilm detachment assay (crystal violet); assay type: cell-based; settings: 0.1% SDS in PBS, 5 min; tubes and microplate wells
# From the text: (§1) Bacterial strains, media, and growth conditions. A. actinomycetemcomitans strain CU1000 (serotype f) was isolated from a person with localized aggressive periodontitis (Fine et al., Microbiol. 1999, 145: 1335-1347). […] An isogenic PGA mutant strain HW1018 (CU1000 pgaC::IS903φKan) was isolated by randomly mutagenizing CU1000 with transposon IS903φKan and selecting mutants that produced white colonies on Congo red agar, as previously described (Kaplan et al., 2003; Kaplan et al., J. Bacteriol. 2004, 186: 8213-8220). Like other pgaC mutant strains, HW1018 was completely deficient in PGA production, but still formed tenacious biofilms on plastic surfaces (Kaplan et al., 2004). Bacteria were grown in trypticase soy broth supplemented with […] and 8 g/L glucose. Solid medium was supplemented with 15 g/L agar. All cultures were incubated statically at 37° C. in 10% CO2.
# (§2) Biofilm Cultures. Biofilms were grown in 17 mm×100 mm culture tubes (untreated polystyrene; Falcon #352051) or 96-well microtiter plates (tissueculture-treated polystyrene, flat bottoms; Falcon #353072). Culture vessels were inoculated with a 1:10 dilution of inoculum in fresh broth (1 mL for tubes or 200 μL for microplates) and incubated for 24 h.
# (§3) Crystal Violet Assay. Biofilm biomass was visualized and quantitated by means of a crystal violet binding assay as previously described (Kaplan et al., Antimicrob. Agents Chemother. 2004, 48: 2633-2636). Briefly, biofilms were rinsed with water to remove loosely attached cells, stained for 1 min with Gram's crystal violet (200 μL for microplates and 1 mL for tubes), rinsed, dried, and photographed. For quantitation of biofilms grown in microplates, biofilms were de-stained with 200 μL of 33% acetic acid for 5 min, and the absorbance of the crystal violet solution was measured directly in the plate by means of a BioRad Benchmark microtiter plate-reader set at 590 nm. Crystal violet binds to bacterial biofilms, but not to polystyrene (O'Toole & Kolter, Mol. Microbiol. 1998, 28: 449-461).
# (§4) Biofilm Detachment Assay. Biofilms were rinsed with water and treated with 200 μL (for microplates) or 1 mL (for tubes) of DispersinB™ (20 μg/mL in PBS) or SDS (0.001-1% in PBS). After a five- or 30-minute incubation at 37° C., biofilms were rinsed with water and stained with crystal violet as described above. In some assays, biofilms were first treated with DispersinB™ for 5 or 30 min, rinsed, and then treated with SDS. All detachment assays were performed in duplicate wells or tubes. All assays were performed on at least 3 separate occasions, with similar results.
# [7] = test system: A. actinomycetemcomitans strain CU1000 (wild-type) biofilms; assay: Biofilm detachment assay (crystal violet); assay type: cell-based
# From the text: as §1, §2, §3, §4
# [8] = test system: A. actinomycetemcomitans planktonic cells; settings: SDS; Drake et al. 1992, Wade & Addy 1992; cited from earlier work
# [9] = test system: A. actinomycetemcomitans CU1000 biofilms; assay: Biofilm killing assay; assay type: cell-based; settings: for decrease in the number of CFU: then 0.01% SDS 5 min
# Experimental: Biofilm Killing Assay. […] Tubes were vortexed for 10 s, and 20 μL aliquots of the detached biofilms were transferred to the wells of a flat-bottomed 96-well microtiter plate containing 180 μL of fresh broth. Five serial dilutions (20 μL into 180 μL) were performed directly into adjacent wells. Plates were incubated for 48 h and then rinsed and stained with crystal violet as described above. Wells containing 30-300 biofilm colonies were photographed under a dissecting microscope and counted. In some assays, biofilms were pre-treated with 1 mL of DispersinB™ (20 μg/mL in PBS) for 5 min prior to the SDS treatment. In these assays, a 100 μL quantity of SDS in PBS (at 10 times the test concentration) was added directly to the DispersinB™-treated cell suspension and mixed. After 5 min, tubes were vortexed briefly, and 20-μL aliquots of culture were enumerated as described above. Killing assays were performed in duplicate tubes on at least 5 separate occasions, with similar results.
# [10] = BisEDT 50 μg/ml, DispersinB 50 μg/ml, phage cocktail 10^8
molecule,measurement,setting,value
"O=C1C=CC(=O)N1c1ccccc1N1C(=O)C=CC1=O [oPDM, N,N-(1,2 phenylene)dimaleimide]","inhibiting the growth of biofilm-embedded S. epidermidis, compound alone",[1]; 625 μg/ml oPDM alone versus 1 μg/ml DispersinB alone,more effective than DispersinB
benzalkonium chloride [BKC],killing of biofilm-embedded S. epidermidis,"[2]; BKC alone, 0.4 μg/ml, 60 min, PBS pretreatment",did not significantly kill
same,decrease in CFU,"[2]; tubes pretreated with DispersinB 20 μg/ml 30 min, then BKC 0.4 μg/ml 60 min",2.2 log
"O=C(O[C@@H]1Cc2c(O)cc(O)cc2O[C@@H]1c1cc(O)c(O)c(O)c1)c1cc(O)c(O)c(O)c1 [EGCG, Epigallocatechin gallate]","inhibiting the growth of biofilm embedded S. aureus, compound alone",[3],more effective than DispersinB™
same,"inhibiting the growth of biofilm embedded S. epidermidis, compound alone",[1]; EGCG 100 ng/ml alone versus DispersinB alone,more effective than DispersinB™
"O=C1C=CC(=O)N1c1ccc2ccc3cccc4ccc1c2c34 [PyrM, N-(1-pyrenyl)maleimide]","inhibiting the growth of biofilm-embedded S. epidermidis, compound alone",[1]; 8 μg/ml PyrM alone versus 1 μg/ml DispersinB alone,more effective than DispersinB
glucose oxidase,inhibitory effect on biofilm-embedded S. epidermidis,[4]; glucose oxidase 10 U/m in combination with DispersinB 20 μg/ml,enhanced the inhibitory effect
OC[C@@H](O)[C@H](O)[C@@H](O)CO [xylitol],inhibitory effect on biofilm-embedded S. epidermidis,[4]; 5% xylitol in combination with DispersinB 20 μg/ml,slightly enhanced the inhibitory effect
bismuth ethanedithiol [BisEDT],"luminescence, Day 1",[5]; [10],245.27 RLU
same,"luminescence, Day 2",[5]; [10],83.51 RLU
same,"luminescence, Day 3",[5]; [10],8.02 RLU
same,"luminescence, Day 4",[5]; [10],47.62 RLU
same,"luminescence, Day 0","[5]; Day 0, before treatment (baseline)",1815.26 RLU
"[H]/N=C(\N/C(=N/[H])NCCCCCCNC(=N)NC(=N)Nc1ccc(Cl)cc1)Nc1ccc(Cl)cc1 [CHX, chlorhexidine]",killing of S. epidermidis biofilm,"[2]; CHX alone, 0.2 μg/ml, 5 min, PBS pretreatment",did not significantly kill
same,decrease of CFU,"[2]; tubes pretreated with DispersinB 20 μg/ml 30 min, then CHX 0.2 μg/ml 5 min",1.6 log
"CCCCCCCCCCCCOS(=O)(=O)[O-].[Na+] [SDS, sodium dodecyl sulfate]",detachment of PGA mutant biofilms,[6],rapid detachment
same,detachment of wild-type biofilms by SDS,"[7]; 0.001-1% SDS, 5 min, microplate wells, mock pretreatment",resistant to detachment at all concentrations of SDS
same,attachment of wild-type biofilms,"[7]; 0.1% SDS in PBS, 5 min, tubes and microplate wells",no effect
same,SDS concentrations at which biofilms were resistant to detachment,"[7]; wild-type biofilms pre-treated with DispersinB 20 μg/mL 30 min, then SDS 5 min, microplate wells",< 0.04%
same,SDS concentration of transition from SDS-resistant to SDS-sensitive,"[7]; wild-type biofilms pre-treated with DispersinB, same transition expressed in mM",1.4 to 2.4 mM
same,MIC against planktonic cells,[8],0.01%
same,killing of biofilm-embedded S. epidermidis,"[2]; SDS alone, 0.2 mg/ml, 5 min, PBS pretreatment",did not significantly kill
same,decrease in the number of CFUs,"[2]; tubes pretreated with DispersinB 20 μg/ml 30 min, then SDS 0.2 mg/ml 5 min",1.5 log unit
same,killing of A. actinomycetemcomitans biofilms,"[9]; SDS alone, 0.01%, 5 min, mock pre-treatment",did not significantly kill
same,decrease in the number of CFU,[9]; tubes pre-treated with DispersinB 20 μg/mL for 5 min,2 log-unit
same,decrease in the number of CFU,[9]; tubes pre-treated with DispersinB 20 μg/mL for 30 min,4 log-unit
